In patent US8034833B2, “Phosphorus binder for treatment of renal disease” (Biolink Life Sciences, Inc., priority 2008, dated 2011):
Where two headings read alike, the source gives them in different places.

How the values were obtained:
[1] = intravenous administration, cited from earlier work
[2] = test system: parathyroid hormone (PTH) secretion; conditions: maintenance dialysis patients; cited from earlier work
[3] = cited from earlier work
[4] = cited from earlier work; remark: listed apart in the source
[5] = in many patients; cited from earlier work
[6] = Solubility in water of cationic phosphate binders (Lange's Handbook); conditions: relative hydrophile by solubility in water
[7] = pH 6.0; Sheikh et al. (Note 2); cited from earlier work
[8] = 77 mEq per os; normal subjects; cited from earlier work
[9] = hemodialysis or peritoneal dialysis patients; cited from earlier work

Compound: C[N+](C)(C)C[C@H](O)CC(=O)[O-] [L-carnitine, L-(−)-Carnitine]
- effect on total, LDL and HDL cholesterol [1]: decrease total cholesterol and LDL cholesterol while significantly increasing HDL cholesterol
- effect on serum phosphate concentrations ([1]; maintenance hemodialysis patients): reduced the serum phosphate concentrations significantly

Compound: [Mg+2].[OH-].[OH-] [Magnesium Hydroxide]
- suppression of parathyroid hormone (PTH) secretion [2]: Neither the combination of oral calcium carbonate/magnesium hydroxide nor magnesium hydroxide alone was effective
- serum Pi level ([3]; average 734 mg elemental Mg/day, three to five weeks, control (no binders) 9.0 mg/dL): 8.1 mg/dL
- mean serum Mg level ([3]; average 734 mg elemental Mg/day, dialysate Mg 1.2 to 1.8 mg/dl): 4.32 mg/dL
- patients who developed diarrhea ([3]; nine patients treated): Four of nine
- serum Mg level, average ([4]; during Mg(OH)2 treatment): 4.3 mg/dL
- serum Pi level ([4]; human, in vivo): 6.1 mg/dL
- severe hyperkalemia [5]: ≤ 8 mEq/L

Compound: [O]=[Mg] [Magnesium Oxide]
- Hydrophile? [6]: No

Compound: Calcium Gluconate
- Observed in vitro Pi Binding, % [7]: 90%

Compound: Magnesium Acetate
- Pi absorption [8]: 28%

Compound: choline magnesium trisalicylate
- effect on serum Pi levels [9]: no effect
